Data reported in ChEMBL document CHEMBL1122313, “Novel 17 alpha-chloro-17 beta-sulfinyl steroids as specific inhibitors of sebaceous gland activity: potential antiacne agents” (1983).

Tests used:
Cricetinae gen. sp. [1] = test: Inhibition of lipid synthesis in hamster flank gland after administration of 0.1 mg.; format: functional
Cricetinae gen. sp. [2] = test: Inhibition of increase in flank organ weight after administration of 0.5 mg.; format: functional, Cricetulus griseus
Cricetinae gen. sp. [3] = test: Inhibition of increase in flank organ weight after administration of 1.0 mg.; format: functional, Cricetulus griseus
Cricetinae gen. sp. [4] = test: The compound was tested for the seminal vesicle weight after -5 mg sc administration for 14 days.; format: functional, Cricetulus griseus
Cricetinae gen. sp. [5] = test: The compound was tested for the treated flank organ weight after -0.375 ug topical application for 14 days.; format: functional, Cricetulus griseus
Cricetinae gen. sp. [6] = test: The compound was tested for the treated flank organ weight after -0.75 ug topical application for 14 days.; format: functional, Cricetulus griseus
Cricetinae gen. sp. [7] = test: The compound was tested for the treated flank organ weight after -1 mg sc administration for 14 days.; format: functional, Cricetulus griseus
Cricetinae gen. sp. [8] = test: The compound was tested for the treated flank organ weight after -5 mg sc administration for 14 days; format: functional, Cricetulus griseus
Cricetinae gen. sp. [9] = test: The compound was tested for the seminal vesicle weight after -0.375 ug topical application for 14 days.; format: functional, Cricetulus griseus
Cricetinae gen. sp. [10] = test: The compound was tested for the seminal vesicle weight after -0.75 ug topical application for 14 days.; format: functional, Cricetulus griseus
Cricetinae gen. sp. [11] = test: The compound was tested for the seminal vesicle weight after -1 mg sc administration for 14 days.; format: functional, Cricetulus griseus

In the case of `Cc1ccccc1C[S+]([O-])[C@@]1(Cl)CCC2C3CCC4=CC(=O)C=C[C@]4(C)C3C(=O)C[C@@]21C` (stereo partly specified), the Inhibition (Cricetinae gen. sp. [1]) is reported as 31%.

With `[O-][S+](Cc1ccccc1)[C@@H](Cl)c1ccccc1` (stereo partly specified) the Inhibition (Cricetinae gen. sp. [1]) was 14%.

For `[O-][S+](CCl)Cc1ccccc1` (stereo unspecified), the Inhibition (Cricetinae gen. sp. [1]) was 14%.

For `C[C@]12C=CC(=O)C=C1CCC1C2[C@@H](O)C[C@@]2(C)C1CC[C@H]2SCc1ccccc1` (stereo partly specified), the Inhibition (Cricetinae gen. sp. [1]) was 0%.

`CCCCC[S+]([O-])[C@@]1(Cl)CCC2C3CCC4=CC(=O)C=C[C@]4(C)C3C(=O)C[C@@]21C` (stereo partly specified) showed an Inhibition (Cricetinae gen. sp. [1]) of less than 29%.

`C[C@]12C=CC(=O)C=C1CCC1C2C(=O)C[C@@]2(C)C1CC[C@H]2[S+]([O-])C(Cl)c1ccccc1` (stereo partly specified) was tested, and the Inhibition (Cricetinae gen. sp. [1]) was 0%.

Work on `C[C@]12C=CC(=O)C=C1CCC1C2C(=O)C[C@@]2(C)C1CC[C@]2(Cl)[S+]([O-])CCc1ccccc1` (stereo partly specified) yielded an Inhibition (Cricetinae gen. sp. [2]) of 16% and an Inhibition (Cricetinae gen. sp. [1]) of 0%.

Compound `C[C@]12C=CC(=O)C=C1CCC1C2C(=O)C[C@@]2(C)C1CC[C@]2(Cl)[S+]([O-])Cc1ccccc1` (stereo partly specified) has an Inhibition (Cricetinae gen. sp. [2]) of 43%, an Inhibition (Cricetinae gen. sp. [3]) of 53% and an Inhibition (Cricetinae gen. sp. [1]) of less than 70%. It also gave an Organ weight (Cricetinae gen. sp. [4]) of 128 mg, an Organ weight (Cricetinae gen. sp. [5]) of less than 29.5 mg and an Organ weight (Cricetinae gen. sp. [6]) of less than 23.7 mg. It also gave an Organ weight (Cricetinae gen. sp. [7]) of less than 21.5 mg, an Organ weight (Cricetinae gen. sp. [8]) of less than 19.5 mg and an Organ weight (Cricetinae gen. sp. [9]) of 351 mg. The Organ weight (Cricetinae gen. sp. [10]) was 358 mg and the Organ weight (Cricetinae gen. sp. [11]) was 138 mg.

With `C[C@]12C=CC(=O)C=C1CCC1C2C(=O)C[C@@]2(C)C1CC[C@H]2SCc1ccccc1` (stereo partly specified) the Inhibition (Cricetinae gen. sp. [1]) was less than 29%.

With `C[C@]1(O)CC[C@H]2[C@@H]3CCC4=CC(=O)CC[C@@H]4[C@H]3CC[C@@]21C` [NORMETHANDRONE] the Organ weight (Cricetinae gen. sp. [4]) was less than 94 mg, the Organ weight (Cricetinae gen. sp. [5]) was less than 15.6 mg and the Organ weight (Cricetinae gen. sp. [6]) was less than 13.7 mg. For the same compound, the Organ weight (Cricetinae gen. sp. [7]) was less than 22.5 mg, the Organ weight (Cricetinae gen. sp. [8]) was less than 22.1 mg and the Organ weight (Cricetinae gen. sp. [9]) was 316 mg. It also gave an Organ weight (Cricetinae gen. sp. [10]) of less than 283 mg and an Organ weight (Cricetinae gen. sp. [11]) of 121 mg.

`C[C@]12C=CC(=O)C=C1CCC1C2C(=O)C[C@@]2(C)C1CC[C@]2(Cl)S(=O)(=O)Cc1ccccc1` (stereo partly specified) gave an Inhibition (Cricetinae gen. sp. [1]) of less than 31%.

Work on `C[C@]12C=CC(=O)C=C1CCC1C2[C@@H](O)C[C@@]2(C)C1CC[C@]2(Cl)[S+]([O-])Cc1ccccc1` (stereo partly specified) yielded an Inhibition (Cricetinae gen. sp. [1]) of less than 20%.

For `C[C@]12C=CC(=O)C=C1CCC1C2C(=O)C[C@@]2(C)C1CC[C@H]2[S+]([O-])Cc1ccccc1` (stereo partly specified), the Inhibition (Cricetinae gen. sp. [1]) was 28%.

In the case of `C[C@]12C=CC(=O)C=C1CCC1C2CC[C@@]2(C)C1CC[C@H]2SCc1ccccc1` (stereo partly specified), the Inhibition (Cricetinae gen. sp. [1]) is reported as 0%.

Work on `C[C@]12C=CC(=O)C=C1CCC1C2C(=O)C[C@@]2(C)C1CC[C@H]2Sc1ccccc1` (stereo partly specified) yielded an Inhibition (Cricetinae gen. sp. [1]) of less than 25%.

In the case of `C[C@]12C=CC(=O)C=C1CCC1C2CC[C@@]2(C)C1CC[C@]2(Cl)[S+]([O-])Cc1ccccc1` (stereo partly specified), the Inhibition (Cricetinae gen. sp. [1]) is reported as less than 40%.

`C[C@]12C=CC(=O)C=C1CCC1C2C(=O)C[C@@]2(C)C1CC[C@]2(Cl)[S+]([O-])c1ccccc1` (stereo partly specified) showed an Inhibition (Cricetinae gen. sp. [1]) of 20%.

`C[C@]12C=CC(=O)C=C1CCC1C2C(=O)C[C@@]2(C)C1CC[C@]2(Cl)[S+]([O-])Cc1ccc(Cl)cc1Cl` (stereo partly specified) was tested, and the Inhibition (Cricetinae gen. sp. [1]) was 20%.
